Source: patent publication US12048703B2, “Use of small molecule FAK activators to promote mucosal healing” (Regents of the University of Minnesota, priority 2018, dated 2024)
Entries after “also recorded” stand apart in the source; their conditions may differ.

How the values were obtained:
[1] = system: Caco-2 monolayers; assay: Closure of circular wounds in Caco-2 monolayers on collagen I; assay type: cell-based, human; conditions: for monolayer wound closure: 10 nM, Caco-2 on collagen I; for Caco-2 monolayer wound closure: concentration not given
[2] = biological target: T1, FAK (Homo sapiens, UniProt Q05397); assay: FAK activation (FAK-Tyr-397 phosphorylation) by western blotting in Caco-2 cells in suspension; assay type: cell-based; conditions: for basal FAK-Tyr-397 phosphorylation: ambient pressure, varying concentrations; for FAK activation (FAK-Tyr-397 phosphorylation): 10 nM, Caco-2 cells; for FAK phosphorylation: 100 pm-1 nM
T1 construct: endogenous in cells; host or cells: Caco-2
T1 sequence (Q05397 whole entry): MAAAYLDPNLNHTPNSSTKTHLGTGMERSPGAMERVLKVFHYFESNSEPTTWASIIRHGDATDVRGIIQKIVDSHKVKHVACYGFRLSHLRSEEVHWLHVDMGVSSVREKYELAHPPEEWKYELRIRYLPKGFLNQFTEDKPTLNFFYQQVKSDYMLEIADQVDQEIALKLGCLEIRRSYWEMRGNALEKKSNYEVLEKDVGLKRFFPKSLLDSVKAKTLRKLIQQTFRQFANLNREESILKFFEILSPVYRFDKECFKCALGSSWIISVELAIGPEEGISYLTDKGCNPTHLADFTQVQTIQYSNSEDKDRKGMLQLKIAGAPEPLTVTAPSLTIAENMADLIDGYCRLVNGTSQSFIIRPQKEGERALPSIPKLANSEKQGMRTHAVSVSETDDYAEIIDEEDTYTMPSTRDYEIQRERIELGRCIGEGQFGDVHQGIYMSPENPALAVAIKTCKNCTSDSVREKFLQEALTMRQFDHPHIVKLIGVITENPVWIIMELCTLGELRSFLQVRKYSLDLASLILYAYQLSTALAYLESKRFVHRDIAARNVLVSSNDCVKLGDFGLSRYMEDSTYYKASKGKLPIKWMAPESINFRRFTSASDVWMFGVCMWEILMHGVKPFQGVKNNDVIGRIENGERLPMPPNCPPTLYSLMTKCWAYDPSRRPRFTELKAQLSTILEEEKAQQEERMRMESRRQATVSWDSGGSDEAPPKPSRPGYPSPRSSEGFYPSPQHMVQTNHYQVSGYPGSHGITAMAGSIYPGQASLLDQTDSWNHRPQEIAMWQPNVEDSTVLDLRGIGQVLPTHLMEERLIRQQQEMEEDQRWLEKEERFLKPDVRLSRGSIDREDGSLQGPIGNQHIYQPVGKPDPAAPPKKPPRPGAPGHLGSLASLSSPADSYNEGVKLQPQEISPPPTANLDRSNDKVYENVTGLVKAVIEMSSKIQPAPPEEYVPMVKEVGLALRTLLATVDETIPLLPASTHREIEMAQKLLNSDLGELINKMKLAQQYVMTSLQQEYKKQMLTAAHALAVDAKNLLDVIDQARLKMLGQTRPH
Excerpt: FAK-Y397 western blotting: For studies of FAK activation, cells were maintained at ambient or increased pressure in bacteriologic plastic dishes pacificated with heat-inactivated bovine serum albumin to prevent adhesion and avoid adhesion-associated background FAK activation. Cells were lysed in lysis buffer, resolved by 10% SDS-PAGE, transferred to nitrocellulose and blotted with antibody to Tyr-397-phosphorylated FAK (Rabbit monoclonal antibody, ab81298, Abcam, USA) and anti-rabbit 680 (LI-COR, USA), before quantitation using Kodak Scientific Imaging Systems 1D, V.3.5.4 within the linear range of exposure (Oncotarget 2017). Total FAK (Primary antibody: Anti-FAK, clone 4.47 Merck, Germany and secondary antibody: anti-mouse 800, LI-COR, USA) served as a protein loading control.

[3] = biological target: T2, SHP2 (Homo sapiens, UniProt Q06124); assay: SHP2 dephosphorylation of a synthetic substrate; assay type: biochemical; conditions: 100 nM; vs. positive control reaction
T2 sequence (Q06124 1-593): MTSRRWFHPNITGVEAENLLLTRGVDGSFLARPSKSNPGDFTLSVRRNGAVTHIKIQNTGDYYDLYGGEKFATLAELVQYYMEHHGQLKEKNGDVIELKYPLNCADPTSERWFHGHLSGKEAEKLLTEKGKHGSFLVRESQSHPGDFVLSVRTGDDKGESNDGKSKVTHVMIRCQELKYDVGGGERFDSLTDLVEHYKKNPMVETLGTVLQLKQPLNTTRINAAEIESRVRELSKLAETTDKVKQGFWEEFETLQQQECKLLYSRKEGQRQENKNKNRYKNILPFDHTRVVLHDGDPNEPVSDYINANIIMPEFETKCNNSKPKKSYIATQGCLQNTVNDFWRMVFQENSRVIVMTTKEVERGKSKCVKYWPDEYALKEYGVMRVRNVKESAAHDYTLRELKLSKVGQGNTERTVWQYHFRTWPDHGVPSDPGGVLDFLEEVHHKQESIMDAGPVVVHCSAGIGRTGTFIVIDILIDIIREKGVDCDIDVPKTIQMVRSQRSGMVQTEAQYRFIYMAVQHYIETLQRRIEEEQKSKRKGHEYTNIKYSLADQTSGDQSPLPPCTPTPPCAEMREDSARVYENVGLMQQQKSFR

Cc1ccccc1[C@@H]1CCCN1C(=O)C[C@H](NC(N)=O)c1cccs1 [Compound 2, [(1S)-3-[(2S)-2-(2-methylphenyl)pyrrolidin-1-yl]-3-oxo-1-thiophen-2-ylpropyl]urea]
wound closure rate ([1]; 100 μM, Caco-2 on Collagen-I): Increased wound closure rates | FAK activation ([2]; 1 nM): demonstrated FAK activation | FAK activation ([2]; 10 and 100 nM): modest FAK activation | basal FAK-Tyr-397 phosphorylation [2]: increase basal FAK-Tyr-397 phosphorylation | FAK activation ([2]; concentration not given): activated FAK

COc1ccc(C2CCCN2C(=O)CC(NC(N)=O)c2ccccc2Cl)cc1OC (centres unmarked) [Compound 4, 1-(2-chlorophenyl)-3-[2-(3,4-dimethoxyphenyl)pyrrolidin-1-yl]-3-oxopropylurea]
monolayer wound closure [1]: Increased wound closure rates; also recorded: can promote Caco-2 monolayer wound healing | monolayer wound closure ([1]; listed as D4): accelerate the closure of circular wounds | FAK activation ([2]; 1 nM): no change was observed | FAK activation (FAK-Tyr-397 phosphorylation) [2]: can activate FAK | FAK activation (FAK-Tyr-397 phosphorylation) ([2]; listed as D4): activate FAK | basal FAK-Tyr-397 phosphorylation [2]: increase basal FAK-Tyr-397 phosphorylation | FAK activation ([2]; concentration not given): especially potent | SHP2 dephosphorylation of a synthetic substrate [3]: neither D3 nor D4 (100 nM) blocks SHP2 dephosphorylation

O=C(Nc1cc(C(F)(F)F)ccc1N1CCOCC1)N1CCCC1c1ccncc1 (centres unmarked) [Compound M3]
Caco-2 monolayer wound closure [1]: promote Caco-2 monolayer wound closure | FAK activation (FAK-Tyr-397 phosphorylation) [2]: proved active; also recorded: activate FAK Y-397 phosphorylation | FAK phosphorylation [2]: activate FAK phosphorylation

COc1ccc(C(CNC(=O)Nc2cc(C(F)(F)F)ccc2N2CCOCC2)N(C)C)cc1 (centres unmarked) [Compound M6]
Caco-2 monolayer wound closure [1]: promote Caco-2 monolayer wound closure | FAK activation (FAK-Tyr-397 phosphorylation) [2]: proved active; also recorded: activate FAK Y-397 phosphorylation | FAK phosphorylation [2]: activate FAK phosphorylation

O=C(Nc1cc(C(F)(F)F)ccc1N1CCOCC1)N1CCCC1C1CCCCC1 (centres unmarked) [Compound M11]
Caco-2 monolayer wound closure [1]: promote Caco-2 monolayer wound closure | FAK activation (FAK-Tyr-397 phosphorylation) [2]: proved active; also recorded: activate FAK Y-397 phosphorylation | FAK phosphorylation [2]: activate FAK phosphorylation

O=C(Nc1cc(C(F)(F)F)ccc1N1CCOCC1)N1CCCC1c1ccccc1 (centres unmarked) [Compound M12]
monolayer wound closure [1]: stimulates monolayer wound closure | FAK activation (FAK-Tyr-397 phosphorylation) [2]: proved active; also recorded: activate FAK Y-397 phosphorylation

CS(=O)(=O)c1cccc(CNc2nc(Nc3ccc4c(c3)CCC(=O)N4)ncc2C(F)(F)F)c1 [PF-573228, reference compound]
basal rates of wound healing in vitro [1]: reduces basal rates of wound healing in vitro | basal FAK autophosphorylation [2]: inhibits basal FAK autophosphorylation
